Entries after “also recorded” stand apart in the source; their conditions may differ.

Series [1] has as its system TDP-43 overexpressing Thp1 cells. Nature of the series: IFNB1 and TNF induction (qPCR) in TDP-43 overexpressing Thp1 cells. The series is classed as cell-based, human. As to conditions: Thp1 cells overexpressing TDP-43 (WT or Q331K). The method, then:
(§1) Immortalised mouse embryonic fibroblasts (MEFs) lacking MAVS, PKR, cGAS, STING, Bax/Bak, Mcl1 or WT control were maintained in DME/KELSO medium (in-house DMEM containing 40 mM sodium bicarbonate, 1 mM HEPES, 0.0135 mM folic acid, 0.24 mM L-asparagine, 0.55 mM L-arginine, 1×Pen/Strep and 22.2 mM D-glucose) supplemented with 10% FBS (Sigma-Aldrich). Transfection of MEFs was performed using FuGENE HD (Promega). AGK−/− (gift from D. Stojanovski) and WT HEK293T cells were maintained in DMEM supplemented with 10% FBS, 100 U/mL Penicillin and 100 μg/mL Streptomycin. Lipofectamine 2000 (Life Technologies) was used to transfect HEK293T cells according to manufacturers' instructions. Human monocytic THP-1 cells were grown in RPMI-1640 with 10% FBS, 100 U/mL Penicillin and 100 μg/mL Streptomycin. The above cell culture was conducted at 37° C. in a humidified atmosphere with 10% CO2. […] The depletion was analysed using real-time qPCR to measure expression of mitochondrial DNA genes and nuclear genes (see Quantitative real-time PCR below).
(§2) Total RNA was isolated using the ISOLATE II RNA Mini Kit (Bioline) as per manufacturers' instructions and reverse transcribed using oligo(dT) nucleotides. Primers for cytokines, mitochondrial DNA and housekeeping genes were used as described previously (White et al., 2014; De Nardo et al., 2014). Others were designed using the Integrated DNA Technologies online tool as follows: hsIFNB1 FW, 5′-TGTCGCCTACTACCTGTTGTGC-3′ (SEQ ID NO:17); hsIFNB1 RV, 5′-AACTGCAACCTTTCGAAGCC-3′ (SEQ ID NO:18); mmIfnb1 FW: 5′-CCAGCTCCAAGAAAGGACGA-3′ (SEQ ID NO:19); mmIfnb1 RV: 5′-TGGATGGCAAAGGCAGTGTA-3′ (SEQ ID NO:20); mmIfna6 FW: 5′-GCTTTCCTGATGGTTTTGGTG-3′ (SEQ ID NO:21); mmIfna6 RV: 5′-AGGCTTTCTTGTTCCTGAGG-3′ (SEQ ID NO:22). Quantitative real-time PCR was performed using SYBR Green/ROX qPCR Master Mix (Thermo Scientific) on a ViiA 7 Real-Time PCR system (Thermo Scientific).
Cytokine expression from qPCR is represented as gene expression relative to Hprt expression as δCt method. Where indicated, relative gene expression in TDP-43 WT or mutant overexpressing cells was further normalised to expression in vector control transfected/overexpressed cells of the same genotype in the same experiment and represented as fold change. Data are typically mean±s.e.m and analysed by t-test between two groups or one- or two-way ANOVA followed by a Sidak or Dunnett multiple comparison test as appropriate. GraphPad Prism 7 was used for all charts and statistical analyses. A P values <0.05 was considered as significant.
Finally, to determine if pharmacological blockade of the cGAS-STING pathway is feasible, recently described inhibitors of cGAS (RU.521, described in Vincent et al., 2017) and STING (H-151 described in Haag et al) were tested. […]

The subject of series [2] is ALS patient iPSC-derived motor neurons. Nature of the series: LDH cytotoxicity assay and brightfield imaging of iPSC-derived motor neurons. The series is classed as cell-based, human. The conditions noted are these: H-151 1 μM, 4-week treatment. The text has this:
(§3) The established human iPSC lines used in this study included two controls (NCRM-1 and NCRM-5) from the National Institute of Neurological Disorders and Stroke, one control and one ALS patient from Alessandro Rosa, one ALS patient from RIKEN and one ALS patient (TALSTDP-47.10) from the Target ALS Foundation. All iPSCs were maintained on Matrigel (Corning, 354277)-coated 6-well plates in mTeSR1 (STEMCell Technologies, 85850) containing 1× Primocin (Invivogen, ant-pm-1) and passaged 1:6 using ReLeSR (STEMCell Technologies, 05872) with ROCK inhibitor Y-27632 (STEMCell Technologies, 72304) for the first 24 hours. The medium was replaced daily. Cells were cyropreserved in mTeSR1/10% DMSO.
(§4) Differentiation of iPSCs into ChAT^+ motor neurons was performed as described previously (Du et al., 2015) All medium and reagents from Gibco unless otherwise stated.
Human iPSCs were cultured in a chemically defined Neural Medium: DMEM/F12:Neurobasal (1:1) supplemented with 0.5×N2, 0.5×B27, 0.1 mM L-ascorbic acid (Sigma), 1× Glutamax and 1× Primocin (Invivogen) containing 3 μM CHIR99021 (STEMCell Technologies, 72054), 2 μM Dorsomorphin (STEMCell Technologies, 72102) and 2 μM SB431542 (STEMCell Technologies, 72234) for 6 days, and the medium was changed every other day. […]

The test system of series [3] is human iPSC-derived motor neurons. Nature of the series: IFNB1 and TNF gene induction (qPCR) in human iPSC-derived motor neurons. Type of series: cell-based. As to conditions: motor neurons from healthy controls and ALS patients with TDP-43 mutations.
Source text: as §2, §3, §4
Human iPSCs were cultured in a chemically defined Neural Medium: DMEM/F12:Neurobasal (1:1) supplemented with 0.5×N2, 0.5×B27, 0.1 mM L-ascorbic acid (Sigma), 1× Glutamax and 1× Primocin (Invivogen) containing 3 μM CHIR99021 (STEMCell Technologies, 72054), 2 μM Dorsomorphin (STEMCell Technologies, 72102) and 2 μM SB431542 (STEMCell Technologies, 72234) for 6 days, and the medium was changed every other day.
The NEPs were dissociated with ReLeSR and cultured 1:6 on Matrigel-coated plates in the Neural Medium containing 1 μM CHIR99021, 2 μM Dorsomorphin and 2 μM SB431542 for 6 days. Y-27632 was used for the first 24 hours. The medium was changed every other day. At this stage of differentiation, MNPs were either expanded in the Neural Medium containing 3 μM CHIR99021, 2 μM Dorsomorphin, 2 μM SB431542, 0.1 μM all-trans retinoic acid (Sigma, R2500), 0.5 μM Purmorphamine (STEMCell Technologies, 72204) and 0.5 mM Valporic Acid (STEMCell Technologies, 72292) prior to MN diffrenertiation or cryopreserved in DMEM/F12 containing 10% FBS and 10% DMSO.
The MNPs were dissociated with ReLeSR and cultured on Matrigel-coated plates in the Neural Medium containing 0.5 μM all-trans RA and 0.1 μM Pur for 6 days into premature MNX1^+ MN. Y-27632 was used for the first 24 hours and the medium was replaced every other day. Subsequently, cells were detached with Accutase (Merck Millipore, SCR005) to generate single cell suspension and matured in the medium supplemented with 0.1 μM Compound E (STEMCell Technologies, 73954) for 10 days into ChAT^+ MNs. The medium was replaced every other day. Cells were plated in Matrigel-coated 8-well chamber slides (iBidi, 80826) to confirm cellular markers of MNs, including MNX1 (Merck Millipore, ABN174) and ChAT (Merck Millipore, […]) along with βIII-Tubulin (Promega, clone 5G8, G7121) staining using an inverted SP8 confocal microscopy (Leica).
In general terms: Real-time PCR tracks product formation cycle by cycle.

In the next series the test system is TDP-43 mutant mice. Nature of the series: Rotarod test in TDP-43 mutant mice with established disease. As to conditions: H-151 (3.75 mM) i.p. every the other day for 4 weeks from 120 days of age. Type of series: in vivo, mouse.
For another series, the system named is 293T cells. Nature of the series: Ifnb1 gene expression induced by TDP-43 (qPCR). Type of series: cell-based. As to conditions: CsA 25 μM. The method, then: as §1
Total RNA was isolated using the ISOLATE II RNA Mini Kit (Bioline) as per manufacturers' instructions and reverse transcribed using oligo(dT) nucleotides. […] Quantitative real-time PCR was performed using SYBR Green/ROX qPCR Master Mix (Thermo Scientific) on a ViiA 7 Real-Time PCR system (Thermo Scientific).

A further series concerns MEFs. Nature of the series: Super-resolution confocal microscopy of TDP-43-mediated DNA relocation from mitochondria into the cytoplasm. Type of series: cell-based, mouse. The conditions noted are these: CsA 25 μM. The method, then: MEF cell lines expressing doxycycline-induced Flagged TDP-43 were seeded onto glass coverslips (18 mm×18 mm, thickness 1½, Zeiss) for indicated times and prepared for imaging as previously described (McArthur et al., 2018). In brief, cells were fixed, blocked and incubated overnight at 4° C. with primary antibodies as follows: anti-Flag (In-house, 9H1), anti-DNA (ProGen, AC-30-10) and anti-TOM20 (Santa Cruz Biotech, sc-11415) in blocking buffer. Following two washes in PBS and an one-hour incubation with secondary antibodies [goat anti-rabbit AF647 (A21245), goat anti-mouse AF488 (A11001 and goat anti-rat AF568, A11077) from Life Technologies], coverslips were mounted onto the microscopy slide using Prolong Diamond Antifade Mountant (ThermoFisher Scientific). Three color imaging was performed on the OMX-SR system (GE Healthcare) using a 60 Å˜1.42 NA oil immersion lens (Olympus).

Take `CCc1ccc(NC(=O)Nc2c[nH]c3ccccc23)cc1` [H-151]: in series [1], the IFNB1 induction entry is listed as “prevent” and the TNF induction result was “prevent”. In addition, in series [2], the “ALS-associated cytotoxicity (LDH, imaging)” value is on record as “mitigates ALS-associated cytotoxicity”. In addition, in series [3] (H-151 1 μM), the IFNB1 gene induction entry was “prevent” and the TNF gene induction entry was “prevent”. For the same molecule, in the series on TDP-43 mutant mice, the “latency to fall in a rotarod test” value was “significantly improved”.
For the molecule `CC1(C)CC(NC(=O)C[P+](c2ccccc2)(c2ccccc2)c2ccccc2)CC(C)(C)N1[O]` [MitoTEMPO], in series [3] (ROS inhibitors 0.1-1 μM), the IFNB1 gene induction entry was “prevent” and the TNF gene induction result is “prevent”.
As for `COC1=C(OC)C(=O)C(CCCCCCCCCC[P+](c2ccccc2)(c2ccccc2)c2ccccc2)=C(C)C1=O` [MitoQ], in series [3] (ROS inhibitors 0.1-1 μM), the IFNB1 gene induction entry is “prevent” and the TNF gene induction entry was “prevent”.
`Cc1nn(-c2nc3ccc(Cl)c(Cl)c3[nH]2)c(O)c1C1OC(=O)c2ccccc21` (stereo not shown) [RU.521]: in series [1], the IFNB1 induction entry was “prevent” and the TNF induction entry was “prevent”. Also, in series [3] (RU.521 10 μM), the IFNB1 gene induction entry was “prevent” and the TNF gene induction result is “prevent”.
In the case of cyclosporin A [CsA], in the series on 293T cells, the “Ifnb1 gene expression induced by TDP-43” value is reported as “prevents”. In addition, the “TDP-43-mediated DNA relocation from mitochondria into the cytoplasm” value in the series with MEFs is “prevented mtDNA leakage into the cytoplasm; also recorded: significantly reduced”.

These data come from US20220071955A1, “Methods of Treatment, Prevention and Diagnosis” (The Walter and Eliza Hall Institute of Medical Research, priority 2018, published 2022).
